In paper PMC7321408, “One-Pot Multicomponent Synthesis and Bioevaluation of Tetrahydroquinoline Derivatives as Potential Antioxidants, α-Amylase Enzyme Inhibitors, Anti-Cancerous and Anti-Inflammatory Agents” (Molecules, 2020):
≈ marks a conversion by molar mass, not a printed value. Where two headings read alike, the source gives them in different places.

Key:
[1] = test system: NO generated by LPS-induced macrophages; test: Nitric oxide assay (Griess) in LPS-induced macrophages; type: cell-based, murine; details: Mus musculus, Macrophage, 18 h, LPS 1 µg/mL, read-out: % NO Production (Mean ± SEM)
Outline: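 Murine macrophages (1 × 10^6/well) pre-treated 2 h with compound at 100, 50, 10 or 1 µM, then LPS 1 µg/mL for 18 h. Nitrite in medium measured with Griess reagent at 540 nm against a NaNO2 standard curve; piroxicam as positive control, t-test for significance.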

[2] = test system: Hep-2C cells; test: MTT assay against Hep-2C cells; type: cell-based, Human; details: Homo sapiens, Hep2C, read-out: IC50 (Mean ± SEM) Hep-2C Cells
Experimental: Hep-2C cell line experiments were performed in the Immunology Lab of the National Institute of Health (NIH), Islamabad, Pakistan. Human cervix carcinoma cells Hep-2C (ATCC HB-8065) were cultured in Dulbecco’s modified Eagle’s medium (DMEM), comprising 10% fetal calf serum (10% FCS) and supplemented with 2 mM L-glutamine, 100 U/mL penicillin, 100 µg/mL streptomycin and 1 mM Na pyruvate, at 37 °C in a humidified 5% CO2 incubator.
The tetrazolium dye 3-(4, 5-dimethyl thiazolyl-2)-2, 5-diphenyltetrazolium bromide (MTT) was used to assess the cytotoxic potential of the test compounds. In living cells, MTT is reduced into its insoluble purple product formazan, which is measured spectrophotometrically.
Hep-2C cells, in a density of 1 × 10^6 (> 90% cell viability), were cultured in a 96-well plate and treated with different concentrations of the test compounds for 24, 48 and 72 h. Ten microliters of MTT (1 mg per mL) were added per well followed by incubation for 4 h. Insoluble formazan crystals were dissolved by adding 100 µL of DMSO. Cells were then incubated for another 2 h. Absorbance was measured at 570 nm by a microplate reader. Untreated Hep-2C cells were taken as controls and DMSO as a negative. % cell viability = (abssample − absblank)/(abscontrol − absblank) × 100

[3] = test system: brine shrimp nauplii; test: Brine shrimp lethality bioassay; type: in vivo; details: 24 h, n = 3
Outline: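 Ten hatched nauplii per well in artificial seawater were exposed to test compounds at 400, 200, 100 and 50 µg/mL under a lamp. Survivors counted after 24 h; percentage mortality calculated; triplicate.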

[4] = DPPH free radical scavenging assay; details: mean ± SEM, n = 3
Outline: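 Compounds at 200, 66.6, 22.2 and 7.4 µg/mL were mixed with DPPH radical, with DMSO as the negative control. Absorbance was read at 630 nm, and % scavenging was calculated as (1 − Abs/Abc) × 100 against the control.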

[5] = test system: raw macrophages; test: MTT cytotoxicity against raw macrophages; type: cell-based, albino rats; details: mean ± SEM, n = 3
Outline: (§1)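 Peritoneal macrophages from albino rats were treated for 24 h at 37 °C, 5% CO2 with test compounds at 100, 50, 10 and 1 µM or vehicle, from DMSO stocks. MTT was then added for 2 h, formazan dissolved in DMSO and absorbance read at 570 nm. % viability = blank-corrected sample over blank-corrected control ×100.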

[6] = MTT cytotoxicity against raw macrophages; type: cell-based, albino rats; details: albino, rat
Outline: as §1

## CCCN(CCC)CN1CCCc2ccccc21 [SF4, N-((3,4-dihydroquinolin-1(2H)-yl), methyl)-N-propylpropan-1 amine]
[1]; 1 µM
  activity at 1 µM: 43.03 ± 0.41%
[1]; 10 µM
  activity at 10 µM: 39.17 ± 0.38%
[1]; 50 µM
  activity at 50 µM: 32.05 ± 0.31%
[1]; 100 µM
  activity at 100 µM: 20.2 ± 0.28%
[2]; 24 h
  IC50: 23.9 ± 1.07 µM
[2]; 48 h
  IC50: 21.2 ± 1.2 µM
[2]; 72 h
  IC50: 15.5 ± 1.03 µM
[3]
  LD50 ± SEM (brine shrimp lethality): 100 ± 1.78 µg/mL
[4]; 7.4 µg/mL
  % DPPH Scavenging Activity: 18.12 ± 0.20%
[4]; 22.22 µg/mL
  % DPPH Scavenging Activity: 41.63 ± 0.28%
[4]; 66.66 µg/mL
  % DPPH Scavenging Activity: 53.65 ± 0.14%
[4]; 200 µg/mL
  % DPPH Scavenging Activity: 58.58 ± 0.33%
[4]; concentration to scavenge 50% of the DPPH radicals
  IC50 (DPPH radical scavenging): 29.79 ± 0.26 µg/mL (≈ 121 µM)
[5]
  IC50: 7.2 ± 0.05 µM
[6]; peritoneal macrophages (raw macrophages), 1 µM, raw macrophages, 24 h, MTT, read-out: % Cell Viability
  viability at 24 h, 1 µM: 79 ± 0.92%
[6]; peritoneal macrophages (raw macrophages), 10 µM, raw macrophages, 24 h, MTT, read-out: % Cell Viability
  viability at 24 h, 10 µM: 53 ± 0.63%
[6]; peritoneal macrophages (raw macrophages), 50 µM, raw macrophages, 24 h, MTT, read-out: % Cell Viability
  viability at 24 h, 50 µM: 42 ± 0.87%
[6]; peritoneal macrophages (raw macrophages), 100 µM, raw macrophages, 24 h, MTT, read-out: % Cell Viability
  viability at 24 h, 100 µM: 39 ± 0.88%
[6]; primary peritoneal macrophages, mean ± SEM, n = 3
  IC50 at 24 h: 7.208 ± 0.05 µM
